In experiment [1] the test system is galactitol accumulation in the tissues of the lens, sciatic nerve, and diaphragm. Nature of the experiment: Galactosemic rats: lowering of dulcitol (galactitol) accumulation in lens, sciatic nerve and diaphragm. It counts as in vivo, Male Sprague-Dawley rats. As to conditions: for % Lowering dulcitol accumulation IN VIVO, D: diaphragm. The procedure:
Such experiments are exemplified hereinbelow after the listing of the following general comments pertaining to these experiments:
Male Sprague-Dawley rats, weighing approximately 90 grams were separated into groups of equal average body weight, with six animals per group. The animals were housed in cages of six animals each and maintained on 12 hour night/12 hour day cycles. Except as otherwise noted, the animals were given food and water ad libitum.
On day 1, the galactosemic control group and all drug-treated groups were given access to 20% galactose chow (Bio-Serv, Frenchtown, N.J.). Animals in the control group were given access to 20% glucose chow (Bio-Serv). Test compounds were administered either in the diet or by gavage as a suspension in 2% Tween 80 in saline. In experiments in which gavage dosing was used, the animals were administered the test compound daily at approximately the same hour each day. Food intake and body weight were determined twice during the course of the experiment. In cases in which the compound was administered in the diet, the average dose was calculated on the basis of the actual average food intake during the experiment.
On the morning of day 5, all animals were fasted; beginning two hours later the animals were decapitated and the lenses, sciatic nerves, and a 50-100 mg portion of the diaphragm were removed, weighed, and frozen in porcelain plates on dry ice.
Only two minor reagent changes were made: (a) the rinsing mixture was an aqueous 5% (w/v) trichloroacetic acid solution and (b) the stock solution was prepared by dissolving 25 mg of dulcitol in 100 mL of an aqueous trichloroacetic acid solution [N.B.: For each experiment the average value found in the tissue from rats fed the glucose diet was subtracted from the individual values found in the corresponding tissue in galactose-fed rats to obtain the amount of polyol accumulated.]
The figures under L, N and D represent the percentage decrease of galactitol accumulation in the tissues of the lens, sciatic nerve, and diaphragm, respectively for treated rats as compared to untreated rats.

The target of the next experiment is T1, aldose reductase (Bos taurus, UniProt P16116).
T1 construct: preparation of the enzyme from bovine lens; from tissue; host or cells: bovine lens
The experiment in a line: In vitro aldose reductase inhibition (modified Hayman and Kinoshita procedure; enzyme from bovine lens). It counts as biochemical. Conditions: for inhibition at 10 µM: read-out: % Inhibition IN VITRO 10^-5 M; for inhibition at 1 µM: read-out: % Inhibition IN VITRO 10^-6 M; for inhibition at 0.1 µM: read-out: % Inhibition IN VITRO 10^-7 M. An excerpt: In the present case the procedure of Hayman and Kinoshita was modified in that the final chromatography step was omitted in the preparation of the enzyme from bovine lens.

The mark [2] stands for this setting: 20% galactose diet, mg/kg by Example: 1:90, 2:128, 3:141, 4:93, 5:121, 6:110, 7:123, 8:87, 9:92, 10:102, 11:71, 12:84, 13:93, 14:112, 16:100, 17:100, 18:128, 19:117, 20:140, 21:103, 22:151, tolrestat:6.
The mark [3] stands for this setting: lens, 20% galactose diet, mg/kg by Example: 1:90, 2:128, 3:141, 4:93, 5:121, 6:110, 7:123, 8:87, 9:92, 10:102, 11:71, 12:84, 13:93, 14:112, 16:100, 17:100, 18:128, 19:117, 20:140, 21:103, 22:151, tolrestat:6.

Read-outs that look alike come from different tables or passages of the source.

Take `CSc1nc(C2CCCCC2)n(CC(=O)O)c(=O)c1C#N` [Example 1, 5-Cyano-2-cyclohexyl-1,6-dihydro-4-(methylthio)-6-oxo-1-pyrimidineacetic Acid]: the “% Lowering dulcitol accumulation IN VIVO, L” value in experiment [1] is given as “N.S”. Further, in experiment [1] (setting [2]), the “% Lowering dulcitol accumulation IN VIVO, D” value turned out to be 42%.
As to `N#Cc1c(SCc2ccccc2)nc(C2CCCCC2)n(CC(=O)O)c1=O` [Example 2], the “% Lowering dulcitol accumulation IN VIVO, D” value in experiment [1] (setting [2]) is “N.S”. For the same compound, the “% Lowering dulcitol accumulation IN VIVO, L” value in experiment [1] (setting [3]) was “N.S”. Moreover, at aldose reductase, the inhibition at 10 µM was 97%, the inhibition at 1 µM amounted to 96% and the inhibition at 0.1 µM amounted to 91%.
`N#Cc1c(SCc2ccc(Br)cc2)nc(C2CCCCC2)n(CC(=O)O)c1=O` [Example 3]: in experiment [1] (setting [2]), the “% Lowering dulcitol accumulation IN VIVO, D” value is reported as “N.S”. For the same compound, the “% Lowering dulcitol accumulation IN VIVO, L” value in experiment [1] (setting [3]) is listed as “N.S”. Also, at aldose reductase, the inhibition at 10 µM was 96%, the inhibition at 1 µM stood at 96% and the inhibition at 0.1 µM was found to be 93%.
On to `N#Cc1c(SCc2ccc(Br)cc2F)nc(C2CCCCC2)n(CC(=O)O)c1=O` [Example 4, 4-[[(4-bromo-2-fluorophenyl)methyl]thio]-5-cyano-2-cyclohexyl-1,6-dihydro-6-oxo-1-pyrimidineacetic acid], for which, in experiment [1] (setting [2]), the “% Lowering dulcitol accumulation IN VIVO, D” value is listed as “N.S”. In experiment [1] (setting [3]), the “% Lowering dulcitol accumulation IN VIVO, L” value worked out at 15%.
Take `CCCCCCSc1nc(C2CCCCC2)n(CC(=O)O)c(=O)c1C#N` [Example 5]: in experiment [1] (setting [2]), the “% Lowering dulcitol accumulation IN VIVO, D” value is recorded as “N.S”. Further, in experiment [1] (setting [3]), the “% Lowering dulcitol accumulation IN VIVO, L” value is given as “N.S”. In addition, at aldose reductase, the inhibition at 10 µM was determined as 94%, the inhibition at 1 µM came out at 95% and the inhibition at 0.1 µM was found to be 96%.
Consider `CC(C)Sc1nc(C2CCCCC2)n(CC(=O)O)c(=O)c1C#N` [Example 6], for which the “% Lowering dulcitol accumulation IN VIVO, D” value in experiment [1] (setting [2]) is recorded as “N.S”. For the same compound, the “% Lowering dulcitol accumulation IN VIVO, L” value in experiment [1] (setting [3]) is listed as “N.S”. Further, on aldose reductase, the inhibition at 10 µM is 93%, the inhibition at 1 µM is 92% and the inhibition at 0.1 µM amounted to 90%.
On to `N#Cc1c(SCC2CCCCC2)nc(C2CCCCC2)n(CC(=O)O)c1=O` [Example 7], for which, in experiment [1] (setting [2]), the “% Lowering dulcitol accumulation IN VIVO, D” value is given as “N.S”. In addition, the “% Lowering dulcitol accumulation IN VIVO, L” value in experiment [1] (setting [3]) was “N.S”. At aldose reductase, the inhibition at 10 µM worked out at 96%, the inhibition at 1 µM is 95% and the inhibition at 0.1 µM is 90%.
Take `CSc1nc(C(C)C)n(CC(=O)O)c(=O)c1C#N` [Example 8]: in experiment [1] (setting [2]), the “% Lowering dulcitol accumulation IN VIVO, D” value is recorded as “N.S”. Also, the “% Lowering dulcitol accumulation IN VIVO, L” value in experiment [1] (setting [3]) is “N.S”. Besides, at aldose reductase, the inhibition at 10 µM is 96%, the inhibition at 1 µM worked out at 96% and the inhibition at 0.1 µM was 94%.
Regarding `CC(C)Sc1nc(C(C)C)n(CC(=O)O)c(=O)c1C#N` [Example 9], in experiment [1] (setting [2]), the “% Lowering dulcitol accumulation IN VIVO, D” value worked out at 16%. Besides, the “% Lowering dulcitol accumulation IN VIVO, L” value in experiment [1] (setting [3]) is reported as “N.S”. Moreover, at aldose reductase, the inhibition at 10 µM was found to be 96%, the inhibition at 1 µM amounted to 97% and the inhibition at 0.1 µM came out at 91%.
On to `CC(C)c1nc(SCc2ccccc2)c(C#N)c(=O)n1CC(=O)O` [Example 10], for which the “% Lowering dulcitol accumulation IN VIVO, D” value in experiment [1] (setting [2]) is listed as 38%. For the same compound, in experiment [1] (setting [3]), the “% Lowering dulcitol accumulation IN VIVO, L” value was “N.S”. In addition, at aldose reductase, the inhibition at 10 µM worked out at 96%, the inhibition at 1 µM amounted to 98% and the inhibition at 0.1 µM is 94%.
As to `CSc1nc(C)n(CC(=O)O)c(=O)c1C#N` [Example 11, 5-Cyano-1,6-dihydro-2-methyl-4-(methylthio)-6-oxo-1-pyrimidineacetic Acid], the “% Lowering dulcitol accumulation IN VIVO, D” value in experiment [1] (setting [2]) is given as “N.S”. The “% Lowering dulcitol accumulation IN VIVO, L” value in experiment [1] (setting [3]) is listed as “N.S”. On aldose reductase, the inhibition at 10 µM is 86%, the inhibition at 1 µM amounted to 84% and the inhibition at 0.1 µM amounted to 74%.
